Measured values taken from publication PMC8986778, “Citrullination of glucokinase is linked to autoimmune diabetes” (Nature Communications, 2022).
Like-named read-outs stand apart in the source and are kept apart here. Non-standard residues stand in square brackets, D forms with d. Residues, ends and D or L forms follow the SMILES beside them. Cit = NC(=O)NCCC[C@H](N)C(=O)O

Target: T1, DR0401 protein (Homo sapiens, UniProt P01903+P01911, A100K/A169T/F76Y/I96L/K127E/L162R/M171V/N62H/P40V/Q125Y/R42H/S133A/S149N/S66Y/V115G/V209L/W38E)
T1 construct: made in house; host or cells: insect cell cultures
Test: DR0401 peptide binding competition assay

[1] = Supplementary Table 2, competition with biotin-HA306-318 0.02 μM, read-out: IC50 (Binding of Predicted Glucokinase Peptides to DR04:01)
[2] = Table 1, competition with biotinylated HA306-318 reference peptide at 0.02 μM in DR0401-coated wells, europium-streptavidin time resolved fluorescence, concentration that displaces half of the reference peptide, read-out: IC50 (binding to DR0401)
[3] = Supplementary Table 3, competition with biotin-HA306-318 0.02 μM, representative values from two replicate experiments, read-out: IC50 (Effect of Citrulline or Arg Substitution)

| SMILES | IC50 [1] [µM] | other results |
| --- | --- | --- |
| CSCC[C@H](NC(=O)[C@H](CCCCN)NC(=O)[C@@H](NC(=O)[C@H](CO)NC(=O)[C@H](C)NC(=O)[C@H](CCC(=O)O)NC(=O)[C@H](CCC(=O)O)NC(=O)[C@H](Cc1c[nH]cn1)NC(=O)[C@@H](NC(=O)[C@H](CCC(=O)O)NC(=O)[C@H](CC(C)C)NC(=O)[C@H](CCCNC(N)=O)NC(=O)[C@H](CC(C)C)NC(=O)CN)[C@@H](C)O)C(C)C)C(=O)N[C@@H](CC(C)C)C(=O)O [GK 44-58] (H-GL[Cit]LETHEEASVKML-OH; N-terminus and C-terminus assumed) | > 50 | – |
| CSCC[C@H](NC(=O)[C@H](C)NC(=O)[C@@H](NC(=O)[C@@H](NC(=O)[C@H](CC(=O)O)NC(=O)[C@H](CCSC)NC(=O)[C@H](CCC(=O)O)NC(=O)[C@H](Cc1ccccc1)NC(=O)[C@H](CC(=O)O)NC(=O)CNC(=O)[C@@H](N)CCCNC(=N)N)C(C)C)C(C)C)C(=O)N[C@H](C(=O)N[C@@H](CC(N)=O)C(=O)N[C@@H](CC(=O)O)C(=O)N[C@H](C(=O)O)[C@@H](C)O)C(C)C [GK 192] (H-RGDFEMDVVAMVNDT-OH) | – | IC50 [2]: 0.35 µM |
| CC[C@H](C)[C@H](NC(=O)[C@H](CCSC)NC(=O)[C@@H](NC(=O)[C@H](C)NC(=O)[C@@H](NC(=O)[C@@H](NC(=O)[C@H](CC(=O)O)NC(=O)[C@H](CC(N)=O)NC(=O)[C@@H](NC(=O)[C@H](CCSC)NC(=O)[C@H](C)NC(=O)[C@@H](NC(=O)[C@@H](N)C(C)C)C(C)C)C(C)C)[C@@H](C)O)C(C)C)[C@@H](C)O)C(=O)N[C@@H](CO)C(=O)N[C@@H](CS)C(=O)N[C@@H](Cc1ccc(O)cc1)C(=O)O [GK 199] (H-VVAMVNDTVATMISCY-OH) | – | IC50 [2]: 2.5 µM |
| CC(C)C[C@H](NC(=O)[C@H](CCCNC(N)=O)NC(=O)[C@H](CC(=O)O)NC(=O)[C@H](Cc1ccc(O)cc1)NC(=O)[C@H](CCC(=O)O)NC(=O)[C@H](CC(C)C)NC(=O)[C@@H](N)CC(C)C)C(=O)N[C@H](C(=O)N[C@@H](CC(=O)O)C(=O)N[C@@H](CCC(=O)O)C(=O)N[C@@H](CO)C(=O)N[C@@H](CO)C(=O)N[C@@H](C)C(=O)N[C@@H](CC(N)=O)C(=O)N1CCC[C@H]1C(=O)O)C(C)C [GK 270 Cit] (H-LLEYD[Cit]LVDESSANP-OH) | – | IC50 [3]: 8.6 µM |
| CC[C@H](C)[C@H](NC(=O)[C@H](CC(N)=O)NC(=O)[C@H](Cc1ccc(O)cc1)NC(=O)[C@@H](NC(=O)[C@H](CCC(N)=O)NC(=O)[C@@H](N)CCCCN)[C@@H](C)CC)C(=O)N[C@@H](CC(C)C)C(=O)N[C@@H](CO)C(=O)N[C@H](C(=O)N[C@@H](CC(C)C)C(=O)NCC(=O)N[C@@H](CC(C)C)C(=O)N[C@@H](CCCNC(N)=O)C(=O)N1CCC[C@H]1C(=O)N[C@@H](CO)C(=O)O)[C@@H](C)O [GK 346] (H-KQIYNILSTLGL[Cit]PS-OH) | – | IC50 [3]: 0.54 µM |
| CC(C)C[C@H](NC(=O)[C@H](CCC(N)=O)NC(=O)[C@H](CCC(=O)O)NC(=O)[C@H](CO)NC(=O)[C@H](C)NC(=O)[C@H](CCC(=O)O)NC(=O)CNC(=O)[C@H](Cc1c[nH]cn1)NC(=O)[C@H](Cc1ccccc1)NC(=O)[C@H](CC(C)C)NC(=O)[C@H](CC(C)C)NC(=O)[C@H](CC(N)=O)NC(=O)[C@H](CCC(=O)O)NC(=O)[C@@H](N)CC(=O)O)C(=O)O [GK 311-324] (H-DENLLFHGEASEQL-OH; N-terminus and C-terminus assumed) | > 50 | – |
| CSCC[C@H](NC(=O)[C@H](Cc1ccc(O)cc1)NC(=O)[C@H](CCCCN)NC(=O)CNC(=O)CN)C(=O)NCC(=O)N[C@@H](CCC(=O)O)C(=O)N[C@@H](CC(C)C)C(=O)N[C@H](C(=O)N[C@@H](CCCNC(N)=O)C(=O)N[C@@H](CC(C)C)C(=O)N[C@H](C(=O)N[C@@H](CC(C)C)C(=O)N[C@@H](CC(C)C)C(=O)N[C@@H](CCCNC(=N)N)C(=O)O)C(C)C)C(C)C [GK 294-308] (H-GGKYMGELV[Cit]LVLLR-OH) | 4.3 | – |
| CC[C@H](C)[C@H](NC(=O)[C@H](CC(N)=O)NC(=O)[C@@H](N)Cc1ccc(O)cc1)C(=O)N[C@@H](CC(C)C)C(=O)N[C@@H](CO)C(=O)N[C@H](C(=O)N[C@@H](CC(C)C)C(=O)NCC(=O)N[C@@H](CC(C)C)C(=O)N[C@@H](CCCNC(N)=O)C(=O)N1CCC[C@H]1C(=O)N[C@@H](CO)C(=O)N[C@H](C(=O)N[C@H](C(=O)N[C@@H](CC(=O)O)C(=O)O)[C@@H](C)O)[C@@H](C)O)[C@@H](C)O [GK 349-363] (H-YNILSTLGL[Cit]PSTTD-OH; N-terminus and C-terminus assumed) | > 50 | – |
| CC(C)C[C@H](NC(=O)[C@H](CC(C)C)NC(=O)[C@H](Cc1ccccc1)NC(=O)[C@H](CCC(=O)O)NC(=O)[C@H](CC(=O)O)NC(=O)[C@@H](N)CC(C)C)C(=O)N[C@@H](CCC(=O)O)C(=O)N[C@@H](Cc1ccc(O)cc1)C(=O)N[C@@H](CC(=O)O)C(=O)N[C@@H](CCCNC(=N)N)C(=O)N[C@@H](CC(C)C)C(=O)N[C@H](C(=O)N[C@@H](CC(=O)O)C(=O)N[C@@H](CCC(=O)O)C(=O)N[C@@H](CO)C(=O)O)C(C)C [GK 266] (H-LDEFLLEYDRLVDES-OH) | – | IC50 [2]: 5.6 µM |

Second part, led by results:

| IC50 [1] [µM] | SMILES | other results |
| --- | --- | --- |
| > 50 | CC[C@H](C)[C@H](NC(=O)[C@@H](NC(=O)CNC(=O)[C@H](C)N)C(C)C)C(=O)N[C@@H](CC(N)=O)C(=O)N[C@@H](CCCNC(N)=O)C(=O)N[C@@H](CCSC)C(=O)N[C@@H](CCCNC(N)=O)C(=O)N[C@@H](CCC(=O)O)C(=O)N[C@@H](CO)C(=O)N[C@@H](CCCNC(N)=O)C(=O)N[C@@H](CO)C(=O)N[C@@H](CCC(=O)O)C(=O)N[C@@H](CC(=O)O)C(=O)N[C@H](C(=O)O)C(C)C [GK 387-401] (H-AGVIN[Cit]M[Cit]ES[Cit]SEDV-OH; N-terminus and C-terminus assumed) | – |
| > 50 | CC(C)C[C@H](NC(=O)[C@H](CCCCN)NC(=O)[C@H](Cc1ccc(O)cc1)NC(=O)[C@@H](NC(=O)[C@H](CO)NC(=O)CN)C(C)C)C(=O)N[C@@H](Cc1c[nH]cn1)C(=O)N1CCC[C@H]1C(=O)N[C@@H](CO)C(=O)N[C@@H](Cc1ccccc1)C(=O)N[C@@H](CCCCN)C(=O)N[C@@H](CCC(=O)O)C(=O)N[C@@H](CCCNC(N)=O)C(=O)N[C@@H](Cc1ccccc1)C(=O)N[C@@H](Cc1c[nH]cn1)C(=O)O [GK 410-424] (H-GSVYKLHPSFKE[Cit]FH-OH; N-terminus and C-terminus assumed) | – |
| > 50 | CC[C@H](C)[C@H](NC(=O)[C@H](Cc1ccccc1)NC(=O)[C@@H](NC(=O)[C@@H](NC(=O)[C@@H](N)CCC(=O)O)[C@@H](C)CC)[C@@H](C)O)C(=O)N[C@@H](CCC(=O)O)C(=O)N[C@@H](CO)C(=O)N[C@@H](CCC(=O)O)C(=O)N[C@@H](CCC(=O)O)C(=O)NCC(=O)N[C@@H](CO)C(=O)NCC(=O)N[C@@H](CCCNC(N)=O)C(=O)NCC(=O)N[C@@H](C)C(=O)O [GK 435-449] (H-EITFIESEEGSG[Cit]GA-OH; N-terminus and C-terminus assumed) | – |
| > 50 | CC[C@H](C)[C@H](NC(=O)[C@@H](N)CC(=O)O)C(=O)N[C@H](C(=O)N[C@@H](CCCNC(N)=O)C(=O)N[C@@H](CCCNC(=N)N)C(=O)N[C@@H](C)C(=O)N[C@@H](CS)C(=O)N[C@@H](CCC(=O)O)C(=O)N[C@@H](CO)C(=O)N[C@H](C(=O)N[C@@H](CO)C(=O)N[C@H](C(=O)N[C@@H](CCCNC(N)=O)C(=O)N[C@@H](C)C(=O)O)[C@@H](C)O)C(C)C)C(C)C [GK 365-378] (H-DIV[Cit]RACESVST[Cit]A-OH; N-terminus and C-terminus assumed) | – |
